Measured values: patent US7098307B2, “Neo-tryptophan” (Mayo Foundation for Medical Education and Research, priority 1998, dated 2006)
“And” between values parts separate entries of the source, which are not always exact repeats. Equal entries are not always repeated. Square brackets hold non-standard residues; d marks the D form. Peptide text beside a SMILES is read from it. Ala(indol-4-yl) = N[C@@H](Cc1cccc2[nH]ccc12)C(=O)O; NMeR = CN[C@@H](CCCNC(=N)N)C(=O)O; Tle = CC(C)(C)[C@H](N)C(=O)O

Experiments:
[1] = Degradation in rat intestinal preparation; type: in vitro ADME; details: pH 7.4, 37° C., read-out: half-time, Rat Intestinal Preparation (converted)
Experimental: For intestinal preparations, rats were sacrificed by decapitation, and the small intestines removed. The tissue was washed with ice-cold PBS (10 mM, pH 7.4). About […] of intestinal tissue was added to about 10 mL of PBS and homogenized using a Brinkman polytron homogenizer (setting 6). After homogenization, 10 mL of PBS was added to 10 mL of the intestinal homogenate. […] The supernatant was removed and stored at −20° C. until testing. Immediately before incubation with the polypeptide, the intestinal preparation was filtered through a 0.2 μm filter. Testing procedures were similar to those for the plasma tests.
(§1) For the degradation studies, data were plotted in linear form as a semi-log plot with SigmaPlot for Windows Version 4.00. Linear regression on these plots provided the parameters used to calculate the half-time (t1/2) for degradation of each polypeptide. The correlation coefficient (R) for the linear regression was taken as a measure of the goodness-of-fit.

[2] = target: T1, dopamine D2 receptors (Homo sapiens, UniProt P14416); assay: Radiolabeled competitive binding, human brain tissue, dopamine
T1 construct: Human brain tissue; from tissue; host or cells: human brain tissue

[3] = Body temperature (hypothermia) in rats; details: for change in body temperature: 5 mg/kg ip
[4] = Blood glucose and hormone levels in rats; type: in vivo, rat; details: 1 mg/kg ip
[5] = target: 5HT2A receptor (Homo sapiens, UniProt P28223); assay: Competitive binding with [3H]ketanserin, human brain tissue
[6] = Degradation in rat plasma (HPLC peak area); type: in vitro ADME; details: 25% plasma, 37° C., 0.5 mg/mL polypeptide, read-out: half-time, Plasma Rat (converted)
Text: as §1

[7] = Catalepsy bar test in rats; type: in vivo, rat
Experimental: The following experiments were performed to assess the ability of NT69L to cause and influence catalepsy. Male Sprague-Dawley rats (150–250 g) or CD-1 mice (24–26 g) were housed in a temperature-controlled room in groups of five with free access to food and water. The animals were kept on a 12 hour light/dark cycle, and all tests were performed during the light cycle. […] Thirty minutes after injection, the animals were tested for catalepsy. For rats, the test involved simply placing the animal's fore paws on a suspended metal bar 10 mm in diameter, 11 cm above the counter. The time elapsed until the animal's fore paws touch the counter was recorded. […] The cut-off time was 20 seconds, and each animal was tested three times for each time point.

[8] = Hot plate test (antinociception, % MPE) in rats
[9] = Body weight and food intake in rats; type: in vivo, rat; details: for increase from original body weight at day 15: saline 29%
Experimental: Two groups of male Sprague-Dawley rats (small and large) and one group of genetically obese Zucker rats were used to study the influence of NT69L on various aspects of body weight. The group of small Sprague-Dawley rats weighed about 270 g at the beginning of the study, while the group of large Sprague-Dawley rats weighted about 400 g. […] The rats had free access to commercial hard rat chow pellets and tap water. During the study, the rats received 100 μL of either saline only or 1 μg/kg, 10 μg/kg, or 1 mg/kg of NT69L on days 1, 2, 7, 8, 11, and 12. Food intake (g), water consumption (mL), and body weight (g) were recorded daily for 15 days. The results were presented as mean ± SEM, or as % of original weight. The data were compared by variance analysis (unpaired or paired Student's t test) and Rank sum test.

[10] = 5 mg/kg ip after four days at 1 mg/kg ip
[11] = intraperitoneal administration (NT64L 1 mg/kg)

For `CN[C@@H](CCCNC(=N)N)C(=O)N[C@@H](CCCCN)C(=O)N1CCC[C@H]1C(=O)N[C@@H](Cc1cccc2[nH]ccc12)C(=O)N[C@H](C(=O)N[C@@H](CC(C)C)C(=O)O)C(C)(C)C` [NT69L] (H-[NMeR]KP[Ala(indol-4-yl)][Tle]L-OH; N-terminus and C-terminus assumed), the half-life [1] was 4.1 h, the Kd [2] was 13.3 µM and the “time up to which body temperature reduction remained significant” value ([3]; 1 mg/kg intraperitoneal) was “up to 300 minutes”. The “Peak BT change” value ([3]; 1 mg/kg intraperitoneal, rats) was −5.3 °C and −5.3 @ ° C, the “body temperature lowering after the first injection” value ([3]; 1 mg/kg ip daily, day 1) was “about 4 degrees” and the “body temperature lowering after the second injection” value ([3]; 1 mg/kg ip daily, day 2) was 1.5 degrees. The “body temperature lowering after the third injection” value ([3]; 1 mg/kg ip daily, day 3) was “no body temperature lowering was detected”, the “reduction in body temperature on 5× challenge” value [3, 10] was “comparable to the reduction normally observed in naive rats” and the “change in body temperature” value ([3]; 30 minutes after injection) was “about −3 °C”. For the same molecule, the “change in body temperature” value ([3]; 77 minutes after injection) was “about −4 °C”, the induction of hypothermia [3, 11] was “did induce” and the “ED50 BT” value ([3]; intraperitoneal, @ 90 min) was 0.4 mg/kg. For the same molecule, the “peak reduction in body temperature” value ([3]; intraperitoneal, dose not restated) was 5.3 °C, the “ED50 body temperature lowering” value ([3]; ip, at 90 minutes) was 0.39 mg/kg and the “peak reduction in body temperature (change)” value ([3]; nasal, 5 mg/kg, at 30 minutes) was −1.4 °C. The “peak reduction in body temperature (change)” value ([3]; oral, 20 mg/kg) was −0.63 °C, the “time of peak reduction in body temperature” value ([3]; oral, 20 mg/kg) was 60 min and the T4 level ([4]; Sprague-Dawley rats, one hour post injection, saline 2.6) was 1.8 µg/dL. It also gave a corticosterone level ([4]; Sprague-Dawley rats, one hour post injection, saline 6.1) of 24.6 µg/dL, a TSH level ([4]; Sprague-Dawley rats, one hour post injection, saline 7.65) of 0.9 mIU/L and a glucose level ([4]; Sprague-Dawley rats, one hour post injection, saline 130) of 221 mg/dL. It also gave a T4 ([4]; Zucker rats, one hour after injection, control 1.47) of 1.03 µg/dL, a TSH ([4]; Zucker rats, one hour after injection, control 1.9) of 0.43 mIU/L and a corticosterone ([4]; Zucker rats, one hour after injection, control 10.9) of 19.7 µg/dL. The blood glucose ([4]; Zucker rats, one hour after injection, control 140) was 310 mg/dL, the Kd [5] was 34.6 µM and the half-life at 0.5 mg/mL [6] was 250 h. The “catalepsy scores in rats” value ([7]; 5 mg/kg ip) was “no effect on catalepsy scores”, the “haloperidol-induced catalepsy, test compound given after” value ([7]; 5 mg/kg ip 30 minutes after haloperidol 1 mg/kg ip) was “reversed” and the “haloperidol-induced catalepsy, test compound given before” value ([7]; 5 mg/kg ip 30 minutes before haloperidol 1 mg/kg ip) was “did not exhibit significant cataleptic behavior”. The “catalepsy on haloperidol injection after chronic treatment” value ([7]; after the third and fourth days of NT69L 1 mg/kg ip) was “exhibited catalepsy”, the “ED50 reversal of haloperidol-induced catalepsy” value ([7]; haloperidol 120 μg/kg ip, NT69L ip 40 minutes later, scored at 130 minutes) was 0.26 mg/kg and the “time up to which peak % MPE of 100% was observed” value ([8]; 1 mg/kg intraperitoneal) was “about 200 minutes”. For the same molecule, the “time of Peak % MPE” value ([8]; 1 mg/kg intraperitoneal, rats) was 300 min, the “% MPE after the first injection” value ([8]; 1 mg/kg ip daily, day 1) was 100% and the “analgesic effect after the second injection” value ([8]; 1 mg/kg ip daily, day 2) was “no analgesic effect”. For the same molecule, the “analgesic effect after the third injection” value ([8]; 1 mg/kg ip daily, day 3) was “no analgesic effect”, the “analgesic effect on 5× challenge” value [8, 10] was “no analgesic effect” and the “induction of antinociception (hot plate)” value [8, 11] was “did induce”. The “ED50 % MPE” value ([8]; intraperitoneal, @ 90 min) was 0.3 mg/kg, the “peak % MPE value” ([8]; nasal, 5 mg/kg, at 60 minutes) was 70% and the “peak % MPE value” ([8]; oral, 20 mg/kg) was 11%. For the same molecule, the “time of Peak % MPE” value ([8]; oral, 20 mg/kg) was 30 min, the “food intake versus saline controls” value ([9]; Zucker rats, one to two days post injection) was “significantly reduced” and the “increase in original body weight by day 15” value ([9]; genetically obese Zucker rats, 1 mg/kg ip, saline 31%) was 25%. For the same molecule, the “reduction in original body weight by day 15” value ([9]; large Sprague-Dawley rats, 1 mg/kg ip, saline […] increase) was 3.0%, the “food intake versus saline controls” value ([9]; large Sprague-Dawley rats, one to two days post injection) was “significantly (P<0.003) less” and the “increase from original body weight at day 15” value ([9]; small Sprague-Dawley rats, 1 μg/kg ip) was 9.0%. For the same molecule, the “increase from original body weight at day 15” value ([9]; small Sprague-Dawley rats, 10 μg/kg ip) was 8.4% and the “food intake versus saline controls” value ([9]; small Sprague-Dawley rats, throughout the experiment) was “significantly (P<0.003) less”.
